From US20240417405A1, “Substituted Spiro Derivatives” (Janssen Pharmaceutica NV, priority 2021, published 2024)

How the values were obtained:
[1] = target: T1, menin/MLL (terbium chelate-labeled menin, FITC-MBM1 peptide) (Homo sapiens, UniProt O00255, T541A); assay: Menin/MLL homogenous time-resolved fluorescence (HTRF) assay; format: binding; conditions: 30 min incubation
T1 construct: Menin (a.a 1-610-6xhis tag)
T1 sequence (O00255 with tags, fused parts or gaps T541A): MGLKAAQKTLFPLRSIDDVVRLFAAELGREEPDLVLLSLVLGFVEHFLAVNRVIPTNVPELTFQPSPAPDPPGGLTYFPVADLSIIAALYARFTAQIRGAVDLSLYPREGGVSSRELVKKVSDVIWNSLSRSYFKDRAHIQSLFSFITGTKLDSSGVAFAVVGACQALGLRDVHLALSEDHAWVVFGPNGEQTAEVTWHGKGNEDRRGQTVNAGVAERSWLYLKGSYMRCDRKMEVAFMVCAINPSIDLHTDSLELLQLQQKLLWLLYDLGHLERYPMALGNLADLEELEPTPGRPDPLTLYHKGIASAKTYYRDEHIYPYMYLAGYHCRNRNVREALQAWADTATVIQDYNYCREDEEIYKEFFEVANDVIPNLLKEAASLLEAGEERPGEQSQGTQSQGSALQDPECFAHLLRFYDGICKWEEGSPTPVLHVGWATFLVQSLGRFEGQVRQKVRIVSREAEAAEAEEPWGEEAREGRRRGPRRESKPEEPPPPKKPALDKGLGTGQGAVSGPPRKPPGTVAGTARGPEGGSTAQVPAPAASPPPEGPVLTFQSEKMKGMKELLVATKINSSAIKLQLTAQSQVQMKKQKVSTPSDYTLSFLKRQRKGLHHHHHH
Summary of the method: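 Terbium-labeled menin (aa 1-610, His-tagged; 200 pM) preincubated 30 min with compound, then 75 nM FITC-MBM1 peptide added for 15 min at ambient temperature in pH 7.5 Tris buffer, 0.5% DMSO. HTRF ratio 520/490 nm converted to % inhibition. IC50 came from an 11-point four-fold titration from 10 μM, floor 0.1 nM.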

MOLM14 cells = assay: Proliferation assay, spheroid-like growth, MOLM14 (MLL-AF9 rearranged); format: cell-based, human; conditions: Homo sapiens, MOLM-14, 192 h, 8 days, confluence as measure of spheroid size, read-out: spheroid assay_OneTime MOLM14 IC50
Summary of the method: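 Cells seeded in ultra-low attachment round-bottom wells (200 MOLM14 or 300 KO-52 per well) with compound at several concentrations, DMSO 0.3%, grown 8 days at 37° C, 5% CO2. Spheroid size taken as confluence from day-8 live-cell images; IC50 from variable-slope fit, DMSO as 0% and high-dose reference compound as 100% effect.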

KO-52 cells = assay: Proliferation assay, spheroid-like growth, KO-52 (MLL wildtype control cell line); format: cell-based, human; conditions: Homo sapiens, 192 h, KO-52 control cells, 8 days, confluence as measure of spheroid size; read-out: spheroid assay_OneTime KO-52 IC50
Experimental: The anti-proliferative effect of menin/MLL protein/protein interaction inhibitor test compounds was assessed in human leukemia cell lines. The cell line MOLM14 harbors a MLL translocation and expresses the MLL fusion proteins MLL-AF9, respectively, as well as the wildtype protein from the second allele. […] KO-52 was used as a control cell line containing two MLL (KMT2A) wildtype alleles in order to exclude compounds that display general cytotoxic effects.
MOLM14 cells were cultured in RPMI-1640 (Sigma Aldrich) supplemented with 10% heat-inactivated fetal bovine serum (HyClone), 2 mM L-glutamine (Sigma Aldrich) and 50 μg/ml gentamycin (Gibco). KO-52 cell lines were propagated in alpha-MEM (Sigma Aldrich) supplemented with 20% heat-inactivated fetal bovine serum (HyClone), 2 mM L-glutamine (Sigma Aldrich) and 50 μg/ml gentamycin (Gibco).
In order to assess the anti-proliferative effects, 200 MOLM14 cells, or 300 KO-52 cells were seeded in 200 μl media per well in 96-well round bottom, ultra-low attachment plates (Costar, catalogue number 7007). Cell seeding numbers were chosen based on growth curves to ensure linear growth throughout the experiment. Test compounds were added at different concentrations and the DMSO content was normalized to 0.3%. Cells were incubated for 8 days at 37° C. and 5% CO2. Spheroid like growth was measured in real-time by live-cell imaging (IncuCyteZOOM, Essenbio, 4× objective) acquiring images at day 8. Confluence (%) as a measure of spheroid size was determined using an integrated analysis tool.
In order to determine the effect of the test compounds over time, the confluence in each well as a measure of spheroid size, was calculated. Confluence of the highest dose of a reference compound was used as baseline for the LC (Low control) and the confluence of DMSO treated cells was used as 0% cytotoxicity (High Control, HC).
Absolute IC50 values were calculated as percent change in confluence as follows:
LC=Low Control: cells treated with e.g. 1 μM of the cytotoxic agent staurosporin, or e.g. cells treated with a high concentration of an alternative reference compound
GraphPad Prism (version 7.00) was used to calculate the IC50. Dose-response equation was used for the plot of % Effect vs Log 10 compound concentration with a variable slope and fixing the maximum to 100% and the minimum to 0%.

| IC50 [1] [nM] | IC50 (MOLM14 cells) [nM] | SMILES | IC50 (KO-52 cells) [µM] |
| --- | --- | --- | --- |
| 0.2 | 3 | CC(C)[C@H]([C@H]1C[C@@H](NC2CC2)C1)N1CC2(CCN(c3ncnnc3Oc3ccc(F)cc3-c3ncccc3C3CC3)C2)C1 (single isomer, unassigned) [Compound 148] | 0.61 |
| 0.2 | 55 | CC(C)C([C@H]1C[C@@H](N2CCC(C#N)CC2)C1)N1CC2(CCN(c3ncnnc3Oc3ccc(F)cc3-c3cncnc3C3CC3)C2)C1 (stereo partly drawn) [Compound 122] | > 15 |
| 0.1 | 17 | CC(C)[C@H]([C@H]1C[C@@H](N2C[C@H]3C[C@@H]2CO3)C1)N1CC2(CCN(c3ncnnc3Oc3ccc(F)cc3-c3ncccc3C3CC3)C2)C1 (single isomer, unassigned) [Compound 288] | 12.1 |
| 0.1 | 2 | CC(C)[C@H]([C@H]1C[C@@H](N2CC[C@H](F)C2)C1)N1CC2(CCN(c3ncnnc3Oc3ccc(F)cc3-c3cncnc3C3CC3)C2)C1 (single isomer, unassigned) [Compound 238] | 7.17 |
| 0.1 | 53 | CO[C@H]1CCN([C@H]2C[C@H]([C@H](C(C)C)N3CC4(CCN(c5ncnnc5Oc5ccc(F)cc5-c5cnncc5C5CC5)C4)C3)C2)C1 (single isomer, unassigned) [Compound 109] | > 15 |
| 0.1 | 8 | CC(C)C([C@H]1C[C@@H](N(C)C)C1)N1CC2(CCN(c3ncnnc3Oc3ccc(F)cc3-c3cncnc3C3CC3)C2)C1 (stereo partly drawn) [Compound 136] | 7.07 |
| 0.1 | 4 | CC(C)[C@H]([C@H]1C[C@@H](N2CCC3(COC3)C2)C1)N1CC2(CCN(c3ncnnc3Oc3ccc(F)cc3-c3cncnc3C3CC3)C2)C1 (single isomer, unassigned) [Compound 325] | 4.98 |
| 0.2 | 9 | CC(C)[C@H]([C@H]1C[C@@H](N2CCC[C@@H](F)C2)C1)N1CC2(CCN(c3ncnnc3Oc3ccc(F)cc3-c3cncnc3C3CC3)C2)C1 (single isomer, unassigned) [Compound 206] | 7.95 |
| 0.3 | 52 | CC(C)[C@H]([C@H]1C[C@@H](NC(=O)C2(F)CC2)C1)N1CC2(CCN(c3ncnnc3Oc3ccc(F)cc3-c3n[nH]c(=O)cc3C3CC3)C2)C1 (single isomer, unassigned) [Compound 311] | 9.99 |
| 0.4 | 130 | COC1(C(=O)N[C@H]2C[C@@H]([C@@H](C(C)C)N3CC4(CCN(c5ncnnc5Oc5ccc(F)cc5-c5cncnc5C5CC5)C4)C3)C2)CC1 (single isomer, unassigned) [Compound 330] | 5.9 |
| 70.3 | > 940 | CC(C)[C@@H]([C@H]1C[C@@H](N2CC[C@@H](S(C)(=O)=O)C2)C1)N1CC2(CCN(c3ncnnc3Oc3ccc(F)cc3-c3ncccc3C3CC3)C2)C1 (single isomer, unassigned) [Compound 287] | > 15 |
| 0.1 | 8 | CC(C)[C@H]([C@H]1C[C@@H](N(C)CCCS(C)(=O)=O)C1)N1CC2(CCN(c3ncnnc3Oc3ccc(F)cc3-c3cncnc3C3CC3)C2)C1 (single isomer, unassigned) [Compound 242] | 12.2 |
| 0.5 | 380 | CO[C@H]1[C@@H]2CN([C@H]3C[C@H]([C@H](C(C)C)N4CC5(CCN(c6ncnnc6Oc6ccc(F)cc6-c6cnncc6C6CC6)C5)C4)C3)C[C@@H]21 (single isomer, unassigned) [Compound 282b] | 11.5 |
| 0.2 | 10 | CC(C)[C@H]([C@H]1C[C@@H](NC(=O)CC2COC2)C1)N1CC2(CCN(c3ncnnc3Oc3ccc(F)cc3-c3cncnc3C3CC3)C2)C1 (single isomer, unassigned) [Compound 296] | > 15 |
| 0.77 | 7.6 | CC(=O)N1CC2(C1)CN([C@H]1C[C@@H]([C@H](C(C)C)N3CC4(CCN(c5ncnnc5Oc5ccc(F)cc5-c5ncc(C)cc5C5CC5)C4)C3)C1)C2 (single isomer, unassigned) [Compound 373] | 5.41 |
| 0.1 | 39 | CC(C)[C@H]([C@H]1C[C@H](N2CC[C@H](C(C)(C)O)C2)C1)N1CC2(CCN(c3ncnnc3Oc3ccc(F)cc3-c3cncnc3C3CC3)C2)C1 (single isomer, unassigned) [Compound 69] | 14 |
| 0.2 | 6 | CC1CN([C@H]2C[C@@H]([C@@H](C(C)C)N3CC4(CCN(c5ncnnc5Oc5ccc(F)cc5-c5cncnc5C5CC5)C4)C3)C2)CCC1O (single isomer, unassigned) [Compound 201] | 4.24 |
| 0.2 | 7 | CC(C)[C@@H]([C@H]1C[C@@H](N2CCC3(CCO3)CC2)C1)N1CC2(CCN(c3ncnnc3Oc3ccc(F)cc3-c3nnccc3C3CC3)C2)C1 (single isomer, unassigned) [Compound 251] | 1.24 |
| 0.4 | 300 | CC(C)[C@H]([C@H]1C[C@@H](N2CC3(COC3)C2)C1)N1CC2(CCN(c3ncnnc3Oc3ccc(F)cc3-c3cnncc3C3CC3)C2)C1 (single isomer, unassigned) [Compound 82] | > 15 |
| 0.1 | 36 | CC(C)[C@H]([C@H]1C[C@@H](NC(=O)C2CC2)C1)N1CC2(CCN(c3ncnnc3Oc3ccc(F)cc3-c3ncccc3C3CC3)C2)C1 (single isomer, unassigned) [Compound 27] | 5.56 |
| 0.1 | 2 | CC(=O)N1CC2CN([C@H]3C[C@@H]([C@@H](C(C)C)N4CC5(CCN(c6ncnnc6Oc6ccc(F)cc6-c6cncnc6C6CC6)C5)C4)C3)CC2C1 (single isomer, unassigned) [Compound 64] | > 15 |
| 0.2 | 1 | CO[C@H]1CCN([C@H]2C[C@@H]([C@H](C(C)C)N3CC4(CCN(c5ncnnc5Oc5ccc(F)cc5-c5cnncc5C5CC5)C4)C3)C2)C1 (single isomer, unassigned) [Compound 108] | 2.65 |
| 0.1 | 100 | CC(C)[C@@H]([C@H]1C[C@H](N2CC3(CCO3)C2)C1)N1CC2(CCN(c3ncnnc3Oc3ccc(F)cc3-c3cnncc3C3CC3)C2)C1 (single isomer, unassigned) [Compound 103] | 12.2 |
| 0.1 | 7 | CC(C)C([C@H]1C[C@@H](N2C[C@H]3COC[C@H]3C2)C1)N1CC2(CCN(c3ncnnc3Oc3ccc(F)cc3-c3cncc(C#N)c3C3CC3)C2)C1 (stereo partly drawn) [Compound 142] | 1.35 |
